Test system: IPEC-J2 cells
Experiment: TEER cell culture assay: protective effect against polypeptide fungitoxins
Type: cell-based, porcine
Conditions: for TEER value after addition of toxin (negative control): toxin 0.2-10 μM added on day 8
Method: In order to test the correlations of polypeptide fungitoxins on epithelial tissue under controlled conditions, in vitro studies were performed. Therein, well-characterized test systems based on cell cultures and described in the literature were employed. For feed additives, epithelial cells from the respective organ in question, e.g. in the present case IPEC-J2 cells from the porcine intestine, were preferred. The used epithelial cells from the porcine intestine offer the advantage of being non-transformed cells still having all the important properties of normal intestinal cells and large physiological similarities such as the formation of viable tight junction proteins, which are above all essential for the intestinal barrier, as well as the expression of characteristic enzymes and transport systems (e.g. P-glycoprotein, cytochrome P450 3A4, vit. B 12 transporters etc.).
For the in vitro examinations of a Glycyrrhiza dry extract, the latter was extracted once again, thus producing a secondary Glycyrrhiza extract. The secondary Glycyrrhiza extract was prepared in that 1 g of the Glycyrrhiza dry extract and 9 ml 70% ethanol was each weighed in, mixed, and shaken at 700 rpm for one hour at room temperature. After this, the solution was centrifuged, and the liquid supernatant was sterile filtered using a 0.2 μm filter and further diluted with IPEC-J2 medium. The secondary Glycyrrhiza extract was tested in vitro in the following concentrations: 250 μg, 500 μg and 1,000 μg Glycyrrhiza dry extract per ml medium in the test formulation, in the following also referred to as 250, 500 and 1,000 μg/ml secondary Glycyrrhiza extract.
The TEER technique described by Geens and Niewold (Cytotechnology, 2011, 63, 415 et seq.) was used in an adapted form. In this in vitro model, intestinal porcine epithelial cells (IPEC-J2, DSMZ No.: ACC 701, Passage 1-15) are cultivated in an insert on a permeable polyester membrane (1.12 cm^2 surface area, 0.4 μm pore size, 12 mm membrane diameter) and differentiated in the incubator for a period of 8 days at 39° C. and 5% CO2. Per insert, 1×10^∧5 cells in 0.5 ml medium are applied to the respective membrane. During said differentiation period, the used medium was aspirated every other day and replaced with fresh medium. The insert was fixed in a 12-well cell culture plate, and the cells were supplied with 1.5 ml medium from below (basolateral compartment) and with 0.5 ml medium from above (apical compartment). […]
Differentiated cells form a cell barrier, being strongly interconnected by tight junction proteins. […] The intactness of the cell barrier is measured by means of a volt-ohmmeter: The electrical resistance between the two compartments is referred to as TEER (transepithelial electrical resistance) value and represented in kOhm×cm^2. […]

Row | Molecule | TEER value after addition of toxin (negative control) | other results
1 | CCC(=O)CCCCC[C@@H]1NC(=O)[C@H]2CCCCN2C(=O)[C@H]([C@@H](C)CC)NC(=O)[C@H](Cc2cn(OC)c3ccccc23)NC1=O [apicidin] | lowered | 
2 | CC[C@H](C)[C@H]1C(=O)O[C@H](C(C)C)C(=O)N(C)[C@@H]([C@@H](C)CC)C(=O)O[C@H](C(C)C)C(=O)N(C)[C@@H]([C@@H](C)CC)C(=O)O[C@H](C(C)C)C(=O)N1C [enniatin A] |  | TEER mean value (toxin) (enniatin A 5 μM alone (negative control), after 24 hours): 3.928 kOhm×cm^2
3 | CC1(C)[C@@H](O[C@H]2O[C@H](C(=O)O)[C@@H](O)[C@H](O)[C@H]2O[C@@H]2O[C@H](C(=O)O)[C@@H](O)[C@H](O)[C@H]2O)CC[C@]2(C)[C@H]3C(=O)C=C4[C@@H]5C[C@@](C)(C(=O)O)CC[C@]5(C)CC[C@@]4(C)[C@]3(C)CC[C@@H]12 [glycyrrhizic acid] |  | Effect in the TEER test against enniatins A, A1, B, B1, beauvericin and apicidin relative to the negative controls (70 μg/ml (corresponding to 1.000 μg/ml secondary Glycyrrhiza extract)): no positive effect
4 | enniatins | lowered | 
